Measured values reported in PubChem BioAssay (NCI).
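Grown in 96-well plates, cells were treated for 48 hours with each compound at five concentrations. Insufficient inhibition: endpoint recorded as highest concentration tested. GI50 marks 50% less growth. TGI denotes the concentration required for complete inhibition of growth.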

Experiments:
Assay in all cases: NCI tumour cell line growth inhibition, 48 h
HCC-2998 colon = tested on: HCC-2998 colon
PC-3 prostate = tested on: PC-3 prostate
SW-620 colon = tested on: SW-620 colon
SN12C renal = tested on: SN12C renal
SF-268 CNS = tested on: SF-268 CNS
TK-10 renal = tested on: TK-10 renal
MOLT-4 leukemia = tested on: MOLT-4 leukemia
BT-549 breast = tested on: BT-549 breast
SK-MEL-5 melanoma = tested on: SK-MEL-5 melanoma
HCT-15 colon = tested on: HCT-15 colon
NCI/ADR-RES ovarian = tested on: NCI/ADR-RES ovarian
CCRF-CEM leukemia = tested on: CCRF-CEM leukemia
MDA-MB-435 = tested on: MDA-MB-435
SK-MEL-28 melanoma = tested on: SK-MEL-28 melanoma
U251 CNS = tested on: U251 CNS
UO-31 renal = tested on: UO-31 renal
HOP-62 NSCLC = tested on: HOP-62 NSCLC
HCT-116 colon = tested on: HCT-116 colon
OVCAR-8 ovarian = tested on: OVCAR-8 ovarian
A549 NSCLC = tested on: A549 NSCLC
NCI-H522 lung = tested on: NCI-H522 lung
SF-295 CNS = tested on: SF-295 CNS
IGROV1 ovarian = tested on: IGROV1 ovarian
LOX IMVI melanoma = tested on: LOX IMVI melanoma
SK-MEL-2 melanoma = tested on: SK-MEL-2 melanoma
KM12 colon = tested on: KM12 colon
CAKI-1 renal = tested on: CAKI-1 renal
OVCAR-3 ovarian = tested on: OVCAR-3 ovarian
SR leukemia = tested on: SR leukemia
SF-539 CNS = tested on: SF-539 CNS
SNB-75 CNS = tested on: SNB-75 CNS
MCF7 breast = tested on: MCF7 breast
UACC-62 melanoma = tested on: UACC-62 melanoma
ACHN renal = tested on: ACHN renal
COLO 205 colon = tested on: COLO 205 colon
EKVX NSCLC = tested on: EKVX NSCLC
NCI-H23 lung = tested on: NCI-H23 lung
HT29 colon = tested on: HT29 colon
K-562 leukemia = tested on: K-562 leukemia
MALME-3M melanoma = tested on: MALME-3M melanoma
SNB-19 CNS = tested on: SNB-19 CNS
HOP-92 NSCLC = tested on: HOP-92 NSCLC
OVCAR-4 ovarian = tested on: OVCAR-4 ovarian
DU-145 prostate = tested on: DU-145 prostate
OVCAR-5 ovarian = tested on: OVCAR-5 ovarian
A498 renal = tested on: A498 renal
NCI-H226 lung = tested on: NCI-H226 lung
786-0 renal = tested on: 786-0 renal
M14 melanoma = tested on: M14 melanoma
SK-OV-3 ovarian = tested on: SK-OV-3 ovarian
MDA-MB-231 breast = tested on: MDA-MB-231 breast
RXF 393 renal = tested on: RXF 393 renal
NCI-H460 lung = tested on: NCI-H460 lung
HS 578T breast = tested on: HS 578T breast
HL-60(TB) leukemia = tested on: HL-60(TB) leukemia
UACC-257 melanoma = tested on: UACC-257 melanoma
RPMI-8226 leukemia = tested on: RPMI-8226 leukemia

`CNCCC/C=C1\c2cc3c(cc2-c2c1c1cc(OC)c(OC)cc1c(=O)n2C)OCO3` gave a GI50 (HCC-2998 colon) of 0.226 µM, a TGI (HCC-2998 colon) of 2.47 µM and a GI50 (PC-3 prostate) of 1.12 µM. For the same compound, the TGI (PC-3 prostate) was 10.6 µM, the GI50 (SW-620 colon) was 0.793 µM and the TGI (SW-620 colon) was 19.5 µM. The GI50 (SN12C renal) was 0.858 µM, the TGI (SN12C renal) was 5.31 µM and the GI50 (SF-268 CNS) was 0.521 µM. It also gave a TGI (SF-268 CNS) of 10 µM, a GI50 (TK-10 renal) of 1.83 µM and a TGI (TK-10 renal) of 9.83 µM. It also gave a GI50 (MOLT-4 leukemia) of 0.137 µM, a TGI (MOLT-4 leukemia) of 0.405 µM and a GI50 (BT-549 breast) of 0.455 µM. The TGI (BT-549 breast) was 4.33 µM, the GI50 (SK-MEL-5 melanoma) was 0.435 µM and the TGI (SK-MEL-5 melanoma) was 1.69 µM. For the same compound, the GI50 (HCT-15 colon) was 1.15 µM, the TGI (HCT-15 colon) was 6.77 µM and the GI50 (NCI/ADR-RES ovarian) was 1.53 µM. The TGI (NCI/ADR-RES ovarian) was 10.3 µM, the GI50 (CCRF-CEM leukemia) was 0.843 µM and the TGI (CCRF-CEM leukemia) was 10.9 µM. The GI50 (MDA-MB-435) was 1.96 µM, the TGI (MDA-MB-435) was 13.4 µM and the GI50 (SK-MEL-28 melanoma) was 1.4 µM. For the same compound, the TGI (SK-MEL-28 melanoma) was 7.99 µM, the GI50 (U251 CNS) was 0.305 µM and the TGI (U251 CNS) was 4.03 µM. For the same compound, the GI50 (UO-31 renal) was 0.75 µM, the GI50 (HOP-62 NSCLC) was 0.59 µM and the TGI (HOP-62 NSCLC) was 3.97 µM. The GI50 (HCT-116 colon) was 0.399 µM, the TGI (HCT-116 colon) was 1.9 µM and the GI50 (OVCAR-8 ovarian) was 2.46 µM. For the same compound, the TGI (OVCAR-8 ovarian) was 19.8 µM, the GI50 (A549 NSCLC) was 1.31 µM and the TGI (A549 NSCLC) was > 24.5 µM. The GI50 (NCI-H522 lung) was 0.611 µM, the GI50 (SF-295 CNS) was 0.322 µM and the TGI (SF-295 CNS) was 2.27 µM. It also gave a GI50 (IGROV1 ovarian) of 0.487 µM, a GI50 (LOX IMVI melanoma) of 0.322 µM and a TGI (LOX IMVI melanoma) of 1.74 µM. For the same compound, the GI50 (SK-MEL-2 melanoma) was 6.92 µM, the TGI (SK-MEL-2 melanoma) was > 42.4 µM and the GI50 (KM12 colon) was 1.92 µM. The TGI (KM12 colon) was 18.1 µM, the GI50 (CAKI-1 renal) was 0.269 µM and the TGI (CAKI-1 renal) was 1.48 µM. The GI50 (OVCAR-3 ovarian) was 0.985 µM, the TGI (OVCAR-3 ovarian) was 4.12 µM and the GI50 (SR leukemia) was 0.211 µM. It also gave a TGI (SR leukemia) of 0.581 µM, a GI50 (SF-539 CNS) of 0.144 µM and a TGI (SF-539 CNS) of 0.558 µM. The GI50 (SNB-75 CNS) was 1.26 µM, the TGI (SNB-75 CNS) was 11.9 µM and the GI50 (MCF7 breast) was 0.244 µM. The TGI (MCF7 breast) was 0.813 µM, the GI50 (UACC-62 melanoma) was 0.248 µM and the TGI (UACC-62 melanoma) was 1.38 µM. It also gave a GI50 (ACHN renal) of 0.245 µM, a TGI (ACHN renal) of 1.04 µM and a GI50 (COLO 205 colon) of 1.13 µM. The GI50 (EKVX NSCLC) was 1.31 µM, the TGI (EKVX NSCLC) was 5.7 µM and the GI50 (NCI-H23 lung) was 1.07 µM. The TGI (NCI-H23 lung) was 5.31 µM, the GI50 (HT29 colon) was 0.658 µM and the TGI (HT29 colon) was 12 µM. For the same compound, the GI50 (K-562 leukemia) was 0.493 µM, the TGI (K-562 leukemia) was 5.87 µM and the GI50 (MALME-3M melanoma) was 0.807 µM. For the same compound, the TGI (MALME-3M melanoma) was 5.98 µM, the GI50 (SNB-19 CNS) was 0.883 µM and the TGI (SNB-19 CNS) was 24.7 µM. The GI50 (HOP-92 NSCLC) was 0.347 µM, the TGI (HOP-92 NSCLC) was 5.43 µM and the GI50 (OVCAR-4 ovarian) was 7.99 µM. It also gave a TGI (OVCAR-4 ovarian) of 44.3 µM, a GI50 (DU-145 prostate) of 1.07 µM and a TGI (DU-145 prostate) of 5.5 µM. For the same compound, the GI50 (OVCAR-5 ovarian) was 1.38 µM, the TGI (OVCAR-5 ovarian) was 8.89 µM and the GI50 (A498 renal) was < 0.0327 µM. The TGI (A498 renal) was 0.341 µM, the GI50 (NCI-H226 lung) was 0.509 µM and the TGI (NCI-H226 lung) was 2.09 µM. The GI50 (786-0 renal) was 0.259 µM, the TGI (786-0 renal) was 2.31 µM and the GI50 (M14 melanoma) was 1.14 µM. For the same compound, the TGI (M14 melanoma) was 9.4 µM, the GI50 (SK-OV-3 ovarian) was 1.87 µM and the GI50 (MDA-MB-231 breast) was 1.03 µM. The TGI (MDA-MB-231 breast) was 5.31 µM, the GI50 (RXF 393 renal) was 0.105 µM and the TGI (RXF 393 renal) was 0.958 µM. For the same compound, the GI50 (NCI-H460 lung) was 0.331 µM, the GI50 (HS 578T breast) was 3.17 µM and the TGI (HS 578T breast) was 30.3 µM. The GI50 (HL-60(TB) leukemia) was 2.22 µM, the TGI (HL-60(TB) leukemia) was 12 µM and the GI50 (UACC-257 melanoma) was 3.09 µM. For the same compound, the TGI (UACC-257 melanoma) was > 100 µM, the GI50 (RPMI-8226 leukemia) was 1.24 µM and the TGI (RPMI-8226 leukemia) was 7.94 µM.
